Test results from PubChem BioAssay AID248 (DTP/NCI, 2004).
Values joined by “and” are separate entries in the source; they are usually repeats but may differ in a detail not shown here. Identical values can stand only once. Toxic doses and inconclusive results are not listed. No stated cut-off is given here; in the data, active means T/C of 150% or more; inactive means T/C below 125%.

Test system: L1210 leukemia ip in BDF1 mice, survival T/C
Assay: NCI In Vivo Anticancer Drug Screen. Data for tumor model L1210 Leukemia (intraperitoneal) in B6D2F1 (BDF1) mice
Details: higher = longer survival
Method in brief: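 Antitumor effect is assessed in tumor-bearing animals. Survival in the compound arm is compared with a vehicle-dosed control arm and expressed as their quotient.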

[1] = endpoint: mean survival time, dose: 100.0 mg/kg/injection, schedule: Q01DX009 (ip), vehicle: saline with Tween-80
[2] = endpoint: mean survival time, dose: 200.0 mg/kg/injection, schedule: Q01DX009 (ip), vehicle: saline with Tween-80
[3] = endpoint: mean survival time, dose: 400.0 mg/kg/injection, schedule: Q01DX009 (ip), vehicle: saline with Tween-80
[4] = endpoint: mean survival time, dose: 100.0 mg/kg/injection, schedule: Q04DX002 (ip), vehicle: Klucel (hydroxypropylcellulose) (HPC)
[5] = endpoint: mean survival time, dose: 200.0 mg/kg/injection, schedule: Q04DX002 (ip), vehicle: Klucel (hydroxypropylcellulose) (HPC)
[6] = endpoint: mean survival time, dose: 100.0 mg/kg/injection, schedule: Q04DX003 (ip), vehicle: saline with Tween-80
[7] = endpoint: mean survival time, dose: 200.0 mg/kg/injection, schedule: Q04DX003 (ip), vehicle: saline with Tween-80
[8] = endpoint: mean survival time, dose: 400.0 mg/kg/injection, schedule: Q04DX003 (ip), vehicle: saline with Tween-80
[9] = endpoint: mean survival time, dose: 100.0 mg/kg/injection, schedule: Q01DX001 (ip), vehicle: Klucel (hydroxypropylcellulose) (HPC)
[10] = endpoint: mean survival time, dose: 100.0 mg/kg/injection, schedule: Q01DX001 (ip), vehicle: saline

Measured: T/C

O=C(O)c1c(Cl)c(Cl)c(Cl)c(Cl)c1C(=O)c1ccccc1
inactive: endpoint: mean survival time, dose: 75.0 mg/kg/injection, schedule: Q01DX001 (ip), vehicle: saline 109 % of control | endpoint: mean survival time, dose: 150.0 mg/kg/injection, schedule: Q01DX001 (ip), vehicle: saline 113 % of control | endpoint: mean survival time, dose: 300.0 mg/kg/injection, schedule: Q01DX001 (ip), vehicle: saline 101 % of control

OC1(C#CC2(O)CCCC2)CCCC1
inactive: endpoint: mean survival time, dose: 50.0 mg/kg/injection, schedule: Q01DX001 (ip), vehicle: carboxymethylcellulose (CMC) 98 % of control | endpoint: mean survival time, dose: 100.0 mg/kg/injection, schedule: Q01DX001 (ip), vehicle: carboxymethylcellulose (CMC) 95 % of control | endpoint: mean survival time, dose: 200.0 mg/kg/injection, schedule: Q01DX001 (ip), vehicle: carboxymethylcellulose (CMC) 87 % of control | endpoint: mean survival time, dose: 400.0 mg/kg/injection, schedule: Q01DX001 (ip), vehicle: carboxymethylcellulose (CMC) 93 % of control

CCC(=O)C(CCCCCCOc1ccc(OC)cc1Cl)C(=O)CC
inactive: [1] 92 % of control | [2] 89 % of control | [3] 87 % of control

Brc1ccc(N=Nc2ccccc2)cc1
inactive: endpoint: mean survival time, dose: 100.0 mg/kg/injection, schedule: Q04DX003 (ip), vehicle: Klucel (hydroxypropylcellulose) (HPC) 103 % of control | endpoint: mean survival time, dose: 200.0 mg/kg/injection, schedule: Q04DX003 (ip), vehicle: Klucel (hydroxypropylcellulose) (HPC) 97 % of control | endpoint: mean survival time, dose: 400.0 mg/kg/injection, schedule: Q04DX003 (ip), vehicle: Klucel (hydroxypropylcellulose) (HPC) 103 % of control

Cc1ccc2c(c1)[n+]([O-])c(N)c(C#N)[n+]2[O-]
inactive: [4] 102 % of control | [5] 98 % of control

C=C(Br)CNC(=O)Nc1ccccc1
inactive: [6] 98 % of control | [7] 95 % of control | [8] 102 % of control

CC(=O)Nc1c(CCCCc2ccccc2)[nH]c(=O)[nH]c1=O
inactive: endpoint: mean survival time, dose: 25.0 mg/kg/injection, schedule: Q01DX001 (ip), vehicle: Klucel (hydroxypropylcellulose) (HPC) 101 % of control | endpoint: mean survival time, dose: 50.0 mg/kg/injection, schedule: Q01DX001 (ip), vehicle: Klucel (hydroxypropylcellulose) (HPC) 92 % of control | [9] 99 % of control and 101 % of control

CC(=O)Oc1ccc(OC(C)=O)c2c1C=CC=CC2
inactive: [6] 104 % of control | [7] 86 % of control | [8] 94 % of control

CNCCCCOC
inactive: endpoint: mean survival time, dose: 100.0 mg/kg/injection, schedule: Q04DX002 (ip), vehicle: saline 117 % of control | endpoint: mean survival time, dose: 200.0 mg/kg/injection, schedule: Q04DX002 (ip), vehicle: saline 104 % of control

Cc1ccc2[nH]c3cc4ccncc4cc3c2c1
inactive: [9] 89 % of control | endpoint: mean survival time, dose: 200.0 mg/kg/injection, schedule: Q01DX001 (ip), vehicle: Klucel (hydroxypropylcellulose) (HPC) 94 % of control | endpoint: mean survival time, dose: 400.0 mg/kg/injection, schedule: Q01DX001 (ip), vehicle: Klucel (hydroxypropylcellulose) (HPC) 93 % of control

c1ncc2[nH]cnc2n1
inactive: endpoint: mean survival time, dose: 27.33 mg/kg/injection, schedule: Q01DX Z (ip), vehicle: carboxymethylcellulose (CMC) 96 % of control | endpoint: mean survival time, dose: 54.67 mg/kg/injection, schedule: Q01DX Z (ip), vehicle: carboxymethylcellulose (CMC) 96 % of control | endpoint: mean survival time, dose: 109.35 mg/kg/injection, schedule: Q01DX Z (ip), vehicle: carboxymethylcellulose (CMC) 108 % of control | endpoint: mean survival time, dose: 218.7 mg/kg/injection, schedule: Q01DX Z (ip), vehicle: carboxymethylcellulose (CMC) 98 % of control

O=C(O)/C=C/C(=O)Nc1cccc(C(F)(F)F)c1
inactive: [4] 100 % of control | [5] 100 % of control | endpoint: mean survival time, dose: 400.0 mg/kg/injection, schedule: Q04DX002 (ip), vehicle: Klucel (hydroxypropylcellulose) (HPC) 96 % of control

CCN(CC)CCn1c(=O)c2ccccc2c2ccccc21
inactive: endpoint: mean survival time, dose: 50.0 mg/kg/injection, schedule: Q01DX001 (ip), vehicle: saline 108 % of control | endpoint: mean survival time, dose: 50.0 mg/kg/injection, schedule: Q01DX009 (ip), vehicle: saline 106 % of control | endpoint: mean survival time, dose: 50.0 mg/kg/injection, schedule: Q04DX003 (ip), vehicle: saline 103 % of control | [10] 104 % of control | endpoint: mean survival time, dose: 100.0 mg/kg/injection, schedule: Q04DX003 (ip), vehicle: saline 111 % of control | endpoint: mean survival time, dose: 200.0 mg/kg/injection, schedule: Q04DX003 (ip), vehicle: saline 107 % of control

O=C1C=C[C@H](O)[C@@]2(CO)O[C@@H]12
inactive: endpoint: median survival time, dose: 0.62 mg/kg/injection, schedule: Q01DX009 (ip), vehicle: saline with Tween-80 101 % of control | endpoint: median survival time, dose: 1.25 mg/kg/injection, schedule: Q01DX009 (ip), vehicle: saline with Tween-80 108 % of control | endpoint: median survival time, dose: 2.5 mg/kg/injection, schedule: Q01DX009 (ip), vehicle: saline with Tween-80 113 % of control | endpoint: median survival time, dose: 5.0 mg/kg/injection, schedule: Q01DX009 (ip), vehicle: saline with Tween-80 120 % of control | endpoint: median survival time, dose: 10.0 mg/kg/injection, schedule: Q01DX009 (ip), vehicle: saline with Tween-80 120 % of control

O=C(Oc1c(Cl)cc(Cl)cc1C=Nc1cccc(C(F)(F)F)c1)c1ccccc1
inactive: endpoint: mean survival time, dose: 100.0 mg/kg/injection, schedule: Q01DX009 (ip), vehicle: other 101 % of control | endpoint: mean survival time, dose: 200.0 mg/kg/injection, schedule: Q01DX009 (ip), vehicle: other 101 % of control | endpoint: mean survival time, dose: 400.0 mg/kg/injection, schedule: Q01DX009 (ip), vehicle: other 101 % of control

CN(C)c1ccnc(N(C)C)n1
inactive: endpoint: mean survival time, dose: 16.0 mg/kg/injection, schedule: Q01DX Z (ip), vehicle: methylcellulose (MC) 96 % of control | endpoint: mean survival time, dose: 31.0 mg/kg/injection, schedule: Q01DX Z (ip), vehicle: methylcellulose (MC) 98 % of control

Cc1ccnc([N+](=O)[O-])c1
inactive: [1] 103 % of control | [2] 92 % of control | [3] 106 % of control

Sc1ccc2ccccc2c1CN(Cc1ccccc1)Cc1c(S)ccc2ccccc12
inactive: [10] 91 % of control | endpoint: mean survival time, dose: 200.0 mg/kg/injection, schedule: Q01DX001 (ip), vehicle: saline 90 % of control | endpoint: mean survival time, dose: 400.0 mg/kg/injection, schedule: Q01DX001 (ip), vehicle: saline 91 % of control

CC(Br)(C(=O)O)C(Br)c1ccccc1 (stereo not given)
inactive: [6] 90 % of control | [7] 95 % of control | [8] 88 % of control

CC(C)(C)CC(C)(C)c1ccc(OCCOc2ccccc2NC(=O)c2ccc3ccccc3c2O)cc1
inactive: [6] 98 % of control | [7] 103 % of control | [8] 86 % of control

Cc1ccc(C)c(-n2c(C)nc3ccccc3c2=O)c1
inactive: endpoint: mean survival time, dose: 100.0 mg/kg/injection, schedule: Q01DX009 (ip), vehicle: Klucel (hydroxypropylcellulose) (HPC) 86 % of control | endpoint: mean survival time, dose: 200.0 mg/kg/injection, schedule: Q01DX009 (ip), vehicle: Klucel (hydroxypropylcellulose) (HPC) 100 % of control | endpoint: mean survival time, dose: 400.0 mg/kg/injection, schedule: Q01DX009 (ip), vehicle: Klucel (hydroxypropylcellulose) (HPC) 91 % of control

CN(Cc1ccccc1)/C(N)=N/N
inactive: endpoint: mean survival time, dose: 37.5 mg/kg/injection, schedule: Q04DX003 (ip), vehicle: saline 94 % of control | endpoint: mean survival time, dose: 75.0 mg/kg/injection, schedule: Q04DX003 (ip), vehicle: saline 111 % of control | endpoint: mean survival time, dose: 150.0 mg/kg/injection, schedule: Q04DX003 (ip), vehicle: saline 97 % of control
